Where two headings read alike, the source gives them in different places.
Tests used:
[1] = tested on: rat perifused pancreatic islets; assay: KATP opening effects through insulin secretion in rat perifused pancreatic islets; format: cell-based; conditions: insulin secretion at 11 mM glucose; for % Inhibition 0-30: 0-30 minutes; for % Inhibition 30-60: 30-60 minutes
Protocol: The animals were maintained on a 12 h light-dark cycle (lights on 06.00-18.00 h) with free access to standard rodent diet (B&K Universal Ltd standard rat and mouse diet (BK 001P), Beekay Feeds, B&K Universal Ltd, Hull, East Riding of Yorkshire) and tap water. The rats were conditioned to this environment for at least one week before experimentation.
Experimental procedures: After the rats were sacrificed, the branch of the bile duct leading to the liver and the duodenal end of the duct in the pancreas were clamped and the pancreas distended by injection of ice-cold 0.9 mg/ml collagenase solution into the bile duct. […] Following incubation, 10 ml of cold buffer was added and the suspension shaken vigorously by hand for 1 min. The islets were allowed to settle for 5 min on ice and washed three times using ice-cold buffer. Well formed and good sized islets from 3 rats were hand-picked (under a low power microscope) and pooled and a final selection of islet transferred to the perifusion apparatus.
Two experiments were performed in parallel in two identical, independent sets of perifusion apparatus each consisting of sufficient number of chambers. Each chamber was loaded with 20 hand-picked islets. Islets were perifused for an initial 30 min period in media containing 4 mM glucose. Perifusate was then collected at 2 min intervals for the remainder of the experiment. […] Perifusate fractions were stored at −75° C. until required for insulin assay. Insulin content of fractions were assayed using a 96-well ELISA assay (Mercodia). Initial insulin assays were performed in triplicate on three pooled fractions from each chamber.
Data were initially expressed as a simple mean of the three experiments for insulin secretion (pg/islet/min) and multiple t-tests (against the corresponding vehicle time period) used to determine potential significant effects of treatments. Alternatively, data were also calculated as a % vehicle effect for each experimental day.

rat SUR2 = rat SUR2 (Rattus norvegicus, UniProt Q63563); assay: In vitro binding affinity to rodent KATP channels: SUR2 (COS cell membranes); conditions: rat SUR2 transiently expressed in COS cells; isoform (2A/2B) not given
Sequence of rat SUR2 (Q63563 1-1503 Y1205S limits assumed, form open): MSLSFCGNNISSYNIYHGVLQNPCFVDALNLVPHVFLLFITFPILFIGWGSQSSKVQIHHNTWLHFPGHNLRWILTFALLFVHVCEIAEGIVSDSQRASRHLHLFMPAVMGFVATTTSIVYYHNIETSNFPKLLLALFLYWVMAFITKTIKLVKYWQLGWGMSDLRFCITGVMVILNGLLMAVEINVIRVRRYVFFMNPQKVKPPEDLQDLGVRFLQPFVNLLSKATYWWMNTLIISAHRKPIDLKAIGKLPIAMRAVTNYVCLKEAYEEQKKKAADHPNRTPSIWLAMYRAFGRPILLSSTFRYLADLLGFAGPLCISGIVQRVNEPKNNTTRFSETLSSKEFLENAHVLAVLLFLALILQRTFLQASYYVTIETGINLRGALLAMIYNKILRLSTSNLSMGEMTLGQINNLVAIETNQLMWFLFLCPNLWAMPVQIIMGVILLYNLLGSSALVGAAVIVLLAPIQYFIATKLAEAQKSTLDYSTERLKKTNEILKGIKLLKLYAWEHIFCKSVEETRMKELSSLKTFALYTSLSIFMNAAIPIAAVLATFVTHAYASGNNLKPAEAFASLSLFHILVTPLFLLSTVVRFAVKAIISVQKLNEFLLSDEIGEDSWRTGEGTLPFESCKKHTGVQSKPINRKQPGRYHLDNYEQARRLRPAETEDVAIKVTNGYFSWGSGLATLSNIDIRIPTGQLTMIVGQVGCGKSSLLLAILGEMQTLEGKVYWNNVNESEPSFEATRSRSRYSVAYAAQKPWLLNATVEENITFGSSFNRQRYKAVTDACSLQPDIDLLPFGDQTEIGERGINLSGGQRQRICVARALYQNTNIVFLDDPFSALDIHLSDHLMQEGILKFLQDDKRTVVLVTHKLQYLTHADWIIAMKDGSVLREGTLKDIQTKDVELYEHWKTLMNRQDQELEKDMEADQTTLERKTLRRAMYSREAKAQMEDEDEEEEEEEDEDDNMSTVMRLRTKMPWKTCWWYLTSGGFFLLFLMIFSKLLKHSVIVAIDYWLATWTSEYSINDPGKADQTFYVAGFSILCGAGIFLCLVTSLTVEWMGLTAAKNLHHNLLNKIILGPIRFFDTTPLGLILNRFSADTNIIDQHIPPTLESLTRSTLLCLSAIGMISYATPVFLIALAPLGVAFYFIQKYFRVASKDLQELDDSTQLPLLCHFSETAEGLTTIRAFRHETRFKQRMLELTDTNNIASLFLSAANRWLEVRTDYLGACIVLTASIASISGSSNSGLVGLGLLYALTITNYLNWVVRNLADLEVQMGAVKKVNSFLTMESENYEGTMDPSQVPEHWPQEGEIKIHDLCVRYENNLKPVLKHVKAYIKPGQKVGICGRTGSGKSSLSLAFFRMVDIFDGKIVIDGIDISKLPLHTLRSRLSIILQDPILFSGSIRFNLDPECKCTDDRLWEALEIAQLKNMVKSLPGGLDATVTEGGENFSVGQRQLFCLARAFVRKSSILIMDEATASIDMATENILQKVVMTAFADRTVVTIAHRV
Protocol: Similar to SUR1 (see above) competitive binding experiments were performed to characterize the affinity of the test compounds for the binding sites for sulfonylureas and KCOs on rat SUR2A. The affinity for the KCO site on SUR2A was assessed by displacement of [^3H]P1075 (see Schwanstecher et al., 1998; Dörschner H. et al. Mol. Pharmacol. 55 (1999) 1060-1066 (Dörschner et al., 1999)). The affinity of [^3H]glibenclamide for the […] SUR2 isoforms, however, is too weak to allow direct detection of binding using filtration assays. Therefore, two strategies can be used to detect binding to the sulfonylurea site on SUR2A. First, binding can be detected indirectly through allosteric displacement of [^3H]P1075 (Dörschner et al., 1999). Second, a mutated SUR2A (SUR2AY1205S, see above) with increased affinity for [^3H]glibenclamide allowing direct displacement of this tracer can be used.
Membranes from COS-cells transiently expressing rat SUR2A were incubated in the presence of the radioligands with increasing concentrations of test compounds as described above. […] For each test compound […] displacement curves were measured (displacement of [^3H]P1075 from the rat isoform of the wild type receptor and displacement of [^3H]glibenclamide from the rat isoform of SUR2AY1205S). Per curve 9-15 distinct concentrations were tested covering the relevant range. […]

hamster SUR1 = biological target: T1, hamster SUR1 (Cricetus cricetus, UniProt Q09427); assay: biochemical; format: binding
T1 construct: expressed in transfected cells; host or cells: COS-1 cells (transient, pcDNA vector), membranes
T1 sequence (Q09427 whole entry): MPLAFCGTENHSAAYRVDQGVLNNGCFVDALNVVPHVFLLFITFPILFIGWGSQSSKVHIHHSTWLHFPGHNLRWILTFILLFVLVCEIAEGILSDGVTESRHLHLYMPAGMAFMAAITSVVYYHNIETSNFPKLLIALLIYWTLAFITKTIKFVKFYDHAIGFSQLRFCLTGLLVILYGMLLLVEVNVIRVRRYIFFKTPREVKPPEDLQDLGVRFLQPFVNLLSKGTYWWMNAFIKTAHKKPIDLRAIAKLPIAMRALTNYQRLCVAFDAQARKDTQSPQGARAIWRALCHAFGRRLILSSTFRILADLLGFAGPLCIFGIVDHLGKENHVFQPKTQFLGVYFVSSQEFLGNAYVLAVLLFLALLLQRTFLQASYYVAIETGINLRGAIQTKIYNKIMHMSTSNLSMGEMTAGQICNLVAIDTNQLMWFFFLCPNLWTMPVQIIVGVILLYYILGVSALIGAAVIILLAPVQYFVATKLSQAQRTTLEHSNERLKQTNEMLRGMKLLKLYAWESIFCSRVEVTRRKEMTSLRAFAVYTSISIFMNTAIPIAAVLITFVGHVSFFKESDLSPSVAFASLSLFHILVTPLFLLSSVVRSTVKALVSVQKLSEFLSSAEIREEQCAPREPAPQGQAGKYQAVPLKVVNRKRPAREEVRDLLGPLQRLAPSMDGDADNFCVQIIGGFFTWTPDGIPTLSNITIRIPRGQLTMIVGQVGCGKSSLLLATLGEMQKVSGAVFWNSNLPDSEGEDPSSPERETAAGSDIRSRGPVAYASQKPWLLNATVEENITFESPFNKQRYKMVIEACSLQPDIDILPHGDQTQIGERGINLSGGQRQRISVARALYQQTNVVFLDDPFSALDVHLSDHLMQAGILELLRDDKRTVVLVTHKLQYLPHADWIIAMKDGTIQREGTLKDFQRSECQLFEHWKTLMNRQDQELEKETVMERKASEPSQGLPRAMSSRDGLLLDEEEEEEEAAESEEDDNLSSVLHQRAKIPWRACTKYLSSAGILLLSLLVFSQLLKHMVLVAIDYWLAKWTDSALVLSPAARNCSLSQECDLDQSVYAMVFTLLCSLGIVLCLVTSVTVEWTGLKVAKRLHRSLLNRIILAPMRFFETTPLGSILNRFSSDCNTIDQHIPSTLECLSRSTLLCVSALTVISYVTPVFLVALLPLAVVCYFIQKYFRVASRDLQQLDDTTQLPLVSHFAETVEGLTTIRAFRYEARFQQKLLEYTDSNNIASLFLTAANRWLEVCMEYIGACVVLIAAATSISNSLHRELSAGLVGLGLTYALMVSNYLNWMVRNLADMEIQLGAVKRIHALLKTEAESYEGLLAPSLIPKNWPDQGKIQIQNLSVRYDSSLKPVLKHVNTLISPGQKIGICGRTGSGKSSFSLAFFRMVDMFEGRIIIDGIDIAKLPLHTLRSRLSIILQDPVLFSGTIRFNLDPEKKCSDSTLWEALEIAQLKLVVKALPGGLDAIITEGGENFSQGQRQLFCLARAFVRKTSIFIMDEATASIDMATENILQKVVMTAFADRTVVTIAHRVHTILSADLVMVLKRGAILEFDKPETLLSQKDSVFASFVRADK
Protocol: Competitive binding experiments were performed to characterize the affinity of the test compounds for the binding sites for sulfonylureas and KATP channel openers (KCOs) on hamster SUR1. To assess the affinity for the sulfonylurea site membranes from COS-cells transiently expressing hamster SUR1 were incubated in the presence of [^3H]glibenclamide with increasing concentrations of test compounds. […] Per curve 9-15 distinct concentrations were tested covering the relevant range. All measurements were repeated at least 5 times in independent experiments.
[^3H]glibenclamide (specific activity 51 Ci mmol^−1 was obtained from NEN (Dreieich, Germany). If suitable, stock solutions were prepared in dimethylsulfoxide with a final solvent concentration in the media below 1%.
SUR- or Kir6.x isoforms were used either subcloned in the pcDNA (hamster SUR1, mouse Kir6.2) or pCMV vector (rat SUR2A, SUR2B).
Rodent SUR-isoforms and KATP channels were transiently expressed in COS-1 cells as described in the literature. […]
The inhibition constant (Ki value) of the test substances was calculated from the respective IC50 value and was stated as the negative logarithmic value thereof (pKi).

[2] = tested on: glucose-stimulated insulin release; assay: Inhibition of glucose-stimulated insulin release (potency comparison in text); conditions: relative to diazoxide

| SMILES | % Inhibition 0-30 [1] | % Inhibition 30-60 [1] | other results |
| --- | --- | --- | --- |
| CON/C(=N\S(=O)(=O)c1ccc(Cl)cc1)N1C[C@H](c2cccc(F)c2)C(c2ccc(Cl)cc2)=N1 (stereo in doubt) [4-Chloro-N-{[3-(4-chloro-phenyl)-4-(3-fluoro-phenyl)-4,5-dihydro-pyrazol-1-yl]-methoxyamino-methylene}-benzenesulfonamide] | 90% | 95% |  |
| CCc1c(C(=O)NN2CCCCC2)nc(-c2ccccc2Cl)n1-c1ccc(Cl)cc1 [1-(4-Chloro-phenyl)-2-(2-chloro-phenyl)-5-ethyl-1H-imidazole-4-carboxylic acid piperidin-1-ylamide, reference compound] | 59% | 45% |  |
| CSc1c(C(=O)NN2CCCCC2)nc(-c2ccccc2Cl)n1-c1ccc(Cl)cc1 [1-(4-Chloro-phenyl)-2-(2-chloro-phenyl)-5-methylsulfanyl-1H-imidazole-4-carboxylic acid piperidin-1-ylamide] | 56% | 36% |  |
| CCCCC/C=C\C/C=C\C/C=C\C/C=C\CCCC(=O)OC(CO)CO [2-AG, Icosa-5,8,11,14-tetraenoic acid 2-hydroxy-1-hydroxymethyl-ethyl ester] |  |  | Affinity to SUR 2 (rat SUR2): 5.5 |
| CC1=NS(=O)(=O)c2cc(Cl)ccc2N1 [Diazoxide, diazoxide] |  |  | Ki (hamster SUR1; example in text on SUR binding, subunit not stated, read-out: pKi (converted)): 158 µM |
| CCCC(C)(C)c1ccc2c(c1)OC(C)(C)[C@@H]1CC=C(C)C[C@@H]21 [JW133, 3-(1,1-dimethyl-butyl)-6,6,9-trimethyl-6a,7,10,10a-tetrahydro-6H-benzo[c]chromene] |  |  | Affinity to SUR 2 (rat SUR2): 3.6; Ki (hamster SUR1; hamster SUR1 transiently expressed in COS cells, read-out: Affinity to SUR 1 (converted)): 1.26 µM |
| CN/C(=N\S(=O)(=O)N1CCOCC1)N1CC(c2ccccc2)C(c2ccc(Cl)cc2)=N1 (centres unmarked) [Mopholine-4-sulfonic acid [3-(4-chloro-phenyl)-4-phenyl-4,5-dihydro-pyrazol-1-yl]-methylamino-methyleneamide] | 83% | 91% |  |
| CN/C(=N\S(=O)(=O)N(C)C)N1CC(c2cccc(F)c2)C(c2ccc(Cl)cc2)=N1 (centres unmarked) [N-{[3-(4-Chloro-phenyl)-4-(3-fluoro-phenyl)-4,5-dihydro-pyrazol-1-yl]-methylamino-methylene}-N,N-dimethyl-sulfonamide] | 72% | 77% |  |
| CN/C(=N\S(=O)(=O)c1ccc(C(F)(F)F)cc1)N1CC(c2cccnc2)C(c2ccc(Cl)cc2)=N1 (centres unmarked) [N-{[3-(4-Chloro-phenyl)-4-pyridin-3-yl-4,5-dihydro-pyrazol-1-yl]-methylamino-methylene}-4-trifluoromethyl-benzenesulfonamide] | 58% | 31% |  |
| CC1(NC2=Nc3cc(Cl)sc3S(=O)(=O)N2)CC1 [NN-414] |  |  | times more potent than diazoxide to inhibit glucose-stimulated insulin release [2]: more than 100 times |
| CNC(=NS(=O)(=O)N1CCCCC1)C1=NN(c2ccc(Cl)cc2)C(c2ccccc2)C1 (centres unmarked) [Piperdine-1-sulfonic acid [1-(4-chloro-phenyl)-5-phenyl-4,5-dihydro-1H-pyrazol-3-yl]-methylamino-methyleneamide] | 84% | 47% |  |
| CN(C)CCNC(=NS(=O)(=O)N1CCCCC1)N1CC(c2ccccc2)C(c2ccc(Cl)cc2)=N1 (centres unmarked) [Piperidin-1-sulfonic acid [3-(4-chloro-phenyl)-4-phenyl-4,5-dihydro-pyrazol-1-yl]-(2-dimethylamino-ethyl-amino)-methyleneamide] | 71% | 64% |  |
| Cc1c(C(=O)NN2CCCCC2)nn(-c2ccc(Cl)cc2Cl)c1-c1ccc(Cl)cc1 [Rimonabant, 5-(4-Chloro-phenyl)-1-(2,4-dichloro-phenyl)-4-methyl-1H-pyrazole-3-carboxylic acid piperidin-1-ylamide, reference compound] | 22% | 18% |  |
